Measurements as given in patent US6100254A, “Inhibitors of protein tyrosine kinases” (Board of Regents, The University of Texas System, priority 1997, dated 2000).

Columns and labels:
[1] = test system: HT-29 colon adenocarcinoma cells; test: Growth of HT-29 cells, viable cell count; format: cell-based, human; conditions: viable cell count 5 days after plating
Protocol: (§1) For these assays 2×10^4 cells are plated in 24 well multiwell tissue culture dishes, in 1 ml of DME/F12 media supplemented with 5% fetal bovine serum. After 24 h, media is replaced with fresh media containing the concentration of inhibitor to be tested, or no inhibitor as a control. Cells are counted 1, 3, and 5 days subsequent to addition of inhibitor. For the day 5 counts, media with fresh inhibitor is used to replace spent media after day 3. […] For counting viable cells, cultures are trypsinized, stained with trypan blue, and cell number determined by counting under light microscopy with the use of a hemacytometer. Benzodiazepine derivatives were tested at their maximally soluble concentrations in 0.1% DMSO diluted with tissue culture medium, and serial dilutions were made thereof. Every concentration tested was performed in triplicate, in identical wells under identical assay conditions.

[2] = test system: HT-29 colon adenocarcinoma cells; test: Anchorage-independent growth, soft agar colony formation; format: cell-based, human
Protocol: Soft agar colony formation is used to determine anchorage independent growth, an in vitro parameter which correlates well with tumorigenicity of HT 29 cells. (AFB-13 cells are unable to form soft agar colonies, a characteristic of normal cells). These assays are performed in 6 well ([…]) multiwell tissue culture dishes. The wells are underlayed with 1% low melting agarose in complete growth media, and refrigerated for 15 min. 1×10^3 HT 29 cells are then added to the wells in complete media in 0.5% low melting agarose. […] After a 24 h incubation period, 0.5 mL of media containing compound to be tested (or media alone as a control) is added to the dish. During the assay, media with or without the test compound is replenished every 3 days. Colonies estimated to contain >100 cells are counted after 14 days. For compounds that induce growth inhibition, the assay is continued to 28 days to assure that differences in colony forming ability were not due to altered growth rate of cells. For initial screening, assays are performed in duplicate for each compound to be tested, due to the large amount of inhibitor required for the length of the study.

Src = biological target: T1, Src (Homo sapiens, UniProt P12931); test: Src tyrosine kinase activity, poly E4Y and 32P-ATP; format: biochemical
T1 construct: made in house; host or cells: baculovirus-insect cell system
Protocol: The compounds within the library were screened at a concentration of 100 μM using the following assay procedure. A 10 μL aliquot of poly(Glu:Tyr, 4:1) to final concentration of 200 μg/mL, 20 μL of benzodiazepine to be tested, 10 μL of purified Src and 10 μL of [gamma-^32 P]-ATP-MgCl2 cocktail (final concentration of 0.2 mM ATP; specific activity of 600 dpm/pmol, and 6 mM MgCl2) were mixed and incubated in 0.5 mL test tubes at ambient temperature. After 30 min, a 35 μL aliquot was spotted onto a 1×1 inch 3 MM filter paper and dropped into a 5% TCA bath at 60° C. The filter papers were washed 3 times with 5% TCA and air dried. The filter papers were then placed into a vial, 3 mL scintillation cocktail added, and analyzed by liquid scintillation counting.
(§2) The tyrosine kinase activity of Src, Lck (p56^lck), Csk (C-Src kinase), Abl (Bcr-Abl catalytic domain), and the FGFr (fibroblast growth factor receptor catalytic domain), was determined using poly E4 Y and ^32 P-ATP.

Yes = Yes (Homo sapiens, UniProt P07947); test: Enzyme panel: Yes; format: biochemical; conditions: apparent value against variable poly E4Y
Lck (p56^lck) = biological target: T2, Lck (p56^lck) (Mus musculus, UniProt P06240); test: Lck tyrosine kinase activity, poly E4Y and 32P-ATP; format: biochemical
T2 construct: glutathione-S-transferase (GST) (N); made in house; host or cells: E. coli
Source text: (§3) The genes encoding Csk, Lck, Abl, and the FGF receptor have all been cloned. The genes encoding Csk, Abl, and the FGF receptor were cloned from humans, and the genes encoding Lck were cloned from a mouse. Recombinant Csk, Lck, Abl, and the FGFr were expressed as glutathione-S-transferase fusion proteins using the pGEX expression vector and E. coli, and purified as described (Sun et al., 1995).
(§4) Recombinant Src was expressed using the baculovirus-insect cell system and purified as published (Budde et al, 1993). Recombinant Csk, Lck, Abl, and the FGFr were expressed as glutathione-S-transferase fusion proteins using the pGEX expression vector and E. coli, and purified as described (Sun and Budde, 1995).
as §2

[3] = test system: AFB-13 normal human fibroblasts; test: Growth of AFB-13 cells, control for cellular toxicity; format: cell-based
Protocol: as §1

protein kinase A (PKA) = protein kinase A (PKA) (Homo sapiens, UniProt P17612); test: Enzyme panel: protein kinase A; format: biochemical
Csk (C-Src kinase) = biological target: T3, Csk (C-Src kinase) (Homo sapiens, UniProt P41240); test: Csk tyrosine kinase activity, poly E4Y and 32P-ATP; format: biochemical
T3 construct: glutathione-S-transferase (GST) (N); made in house; host or cells: E. coli
Source text: as §3, §4, §2

T1 sequence (P12931 whole entry, species assumed): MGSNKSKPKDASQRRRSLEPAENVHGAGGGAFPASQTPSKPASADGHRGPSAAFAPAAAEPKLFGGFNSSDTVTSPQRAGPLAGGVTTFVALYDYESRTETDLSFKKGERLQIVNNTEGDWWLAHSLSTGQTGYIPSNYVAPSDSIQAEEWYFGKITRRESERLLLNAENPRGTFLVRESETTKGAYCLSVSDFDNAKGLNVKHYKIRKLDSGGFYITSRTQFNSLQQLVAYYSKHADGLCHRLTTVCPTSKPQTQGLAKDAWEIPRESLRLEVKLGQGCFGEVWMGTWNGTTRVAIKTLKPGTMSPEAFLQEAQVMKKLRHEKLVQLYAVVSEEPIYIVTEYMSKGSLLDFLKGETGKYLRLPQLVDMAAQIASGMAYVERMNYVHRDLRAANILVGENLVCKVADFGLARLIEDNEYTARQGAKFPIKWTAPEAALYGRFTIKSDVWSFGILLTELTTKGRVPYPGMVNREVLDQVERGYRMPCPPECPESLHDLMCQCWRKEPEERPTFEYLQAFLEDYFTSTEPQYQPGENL
T3 sequence (P41240 whole entry): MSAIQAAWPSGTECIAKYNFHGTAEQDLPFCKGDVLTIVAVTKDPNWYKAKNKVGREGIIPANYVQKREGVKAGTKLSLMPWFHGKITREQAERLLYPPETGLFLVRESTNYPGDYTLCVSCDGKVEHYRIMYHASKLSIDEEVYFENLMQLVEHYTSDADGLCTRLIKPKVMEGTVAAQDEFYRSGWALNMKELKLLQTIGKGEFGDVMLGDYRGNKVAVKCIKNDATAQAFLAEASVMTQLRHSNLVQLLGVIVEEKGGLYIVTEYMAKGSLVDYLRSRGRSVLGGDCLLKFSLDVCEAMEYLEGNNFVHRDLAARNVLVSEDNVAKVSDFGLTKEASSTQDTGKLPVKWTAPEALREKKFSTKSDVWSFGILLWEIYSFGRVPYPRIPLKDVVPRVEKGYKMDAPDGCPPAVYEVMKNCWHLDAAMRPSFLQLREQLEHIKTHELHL
T2 sequence (P06240 whole entry): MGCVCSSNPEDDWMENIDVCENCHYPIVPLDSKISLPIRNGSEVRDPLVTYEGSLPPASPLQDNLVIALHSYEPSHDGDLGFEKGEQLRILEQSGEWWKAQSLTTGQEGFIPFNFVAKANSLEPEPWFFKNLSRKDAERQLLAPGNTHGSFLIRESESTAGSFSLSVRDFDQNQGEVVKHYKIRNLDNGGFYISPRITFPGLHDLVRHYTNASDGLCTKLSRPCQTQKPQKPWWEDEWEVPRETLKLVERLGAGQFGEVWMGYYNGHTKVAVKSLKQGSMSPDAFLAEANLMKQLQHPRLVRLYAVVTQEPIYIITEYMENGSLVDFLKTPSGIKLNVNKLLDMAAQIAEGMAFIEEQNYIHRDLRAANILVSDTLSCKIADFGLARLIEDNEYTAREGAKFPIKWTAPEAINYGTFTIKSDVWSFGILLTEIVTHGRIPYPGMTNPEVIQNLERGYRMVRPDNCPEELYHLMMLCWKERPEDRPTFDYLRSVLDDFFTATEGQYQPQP
Yes, sequence (P07947 whole entry, species assumed): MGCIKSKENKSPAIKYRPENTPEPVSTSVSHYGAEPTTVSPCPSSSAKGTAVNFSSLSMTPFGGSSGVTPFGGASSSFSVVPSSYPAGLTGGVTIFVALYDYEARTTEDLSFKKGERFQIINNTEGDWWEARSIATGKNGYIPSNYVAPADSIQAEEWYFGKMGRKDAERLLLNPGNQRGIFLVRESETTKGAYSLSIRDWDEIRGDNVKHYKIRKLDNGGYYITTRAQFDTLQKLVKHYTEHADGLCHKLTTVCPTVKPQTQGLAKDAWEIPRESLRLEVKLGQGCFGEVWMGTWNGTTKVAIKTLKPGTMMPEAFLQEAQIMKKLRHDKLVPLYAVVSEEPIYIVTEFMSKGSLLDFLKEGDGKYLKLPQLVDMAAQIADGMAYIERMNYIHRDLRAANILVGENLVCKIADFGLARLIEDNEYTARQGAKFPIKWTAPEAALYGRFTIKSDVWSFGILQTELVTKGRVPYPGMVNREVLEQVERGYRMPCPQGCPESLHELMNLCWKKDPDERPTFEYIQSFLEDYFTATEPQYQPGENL

O=C1[C@H](Cc2ccc(O)cc2)N=C(c2ccc(O)cc2)c2cc(Cl)ccc2N1Cc1ccc(-c2ccccc2)cc1 [L-Tyr,BnzPh, 7-chloro-1,3-dihydro-1-(-4-biphenylmethyl)-3-(-4-hydroxyphenylmethyl)-5-(4-hydroxyphenyl)-(2H)1,4-benzodiazepin-2-one]
HT-29 Growth ([1]; 28 μM): cytotoxic | activity at 3 µM ([1]; Homo sapiens, HT-29, 120 h, 3 μM): 100 ± 10% | activity at 14 µM ([1]; Homo sapiens, HT-29, 120 h, 14 μM): 98 ± 9% | inhibition of colony formation of HT-29 colon adenocarcinoma cells ([2]; 28 μM): complete inhibition | activity at 3 µM ([2]; Homo sapiens, HT-29, 336 h, 3 μM, colonies ≥100 cells 14 days after plating): 29% | activity at 14 µM ([2]; Homo sapiens, HT-29, 336 h, 14 μM, colonies ≥100 cells 14 days after plating): 8% | activity at 28 µM ([2]; Homo sapiens, HT-29, 336 h, 28 μM, colonies ≥100 cells 14 days after plating): 0% | IC50 (Src): 73 µM | Ki (Src; Table 10, benzodiazepines as inhibitors of Src): 20 µM | mode of inhibition (Src; against variable ATP or variable poly E4Y): mixed | Ki (Yes): 50 µM | IC50 (Lck (p56^lck)): 505 µM | activity at 3 µM ([3]; Homo sapiens, Fibroblast, 120 h, 3 μM, viable cell count 5 days after plating): 89 ± 6% | activity at 14 µM ([3]; Homo sapiens, Fibroblast, 120 h, 14 μM, viable cell count 5 days after plating): 97 ± 5% | activity at 28 µM ([3]; Homo sapiens, Fibroblast, 120 h, 28 μM, viable cell count 5 days after plating): 90 ± 4% | inhibition of growth of AFB-13 normal fibroblasts ([3]; same concentrations (up to 28 μM)): Less than 10% | IC50 (protein kinase A (PKA)): 450 µM | Ki (protein kinase A (PKA); apparent value): 104 µM | IC50 (Csk (C-Src kinase)): 136 µM | Ki (Csk (C-Src kinase); apparent value against variable poly E4Y): 63 µM
